In test [1] the test system is NQO1 specific enzyme activity in BEAS-2B cells (marker for NRF2 activation). Description: BEAS-2B NQO1 MTT Assay. Type of test: cell-based. The following applies: Homo sapiens, compound incubated 48 hours, read-out: EC50 (NQO1 specific enzyme activity induction). From the text:
BEAS-2B NQO1 MTT Assay NAD(P)H:quinone oxidoreductase 1 (NQO1), also called DT diaphorase, is a homodimeric FAD-containing enzyme that catalyzes obligatory NAD(P)H-dependent two-electron reductions of quinones and protects cells against the toxic and neoplastic effects of free radicals and reactive oxygen species arising from one-electron reductions. The transcription of NQO1 is finely regulated by NRF2, and thus NQO1 activity is a good marker for NRF2 activation. On day one, frozen BEAS-2B cells (ATCC) are thawed in a water bath, counted, and re-suspended at a concentration of 250,000 cells/mL. Fifty microliters of cells are plated in 384 well black clear-bottomed plates. Plates are incubated at 37° C., 5% CO2 overnight. On day two, plates are centrifuged and 50 nL of compound or controls are added to the cells. Plates are then incubated at 37° C., 5% CO2 for 48 hours. On day four, medium is aspirated from the plate and crude cell lysates are made by adding 13 uL of 1× Cell Signaling Technologies lysis buffer with 1 Complete, Mini, EDTA-free Protease Inhibitor Tablet (Roche) for each 10 mL of lysis buffer. After lysis plates are incubated for 20 minutes at room temperature. Two microliters of lysate are removed for use in Cell Titer Glo assay (Promega) and MTT cocktail is prepared (Prochaska et. al. 1998) for measurement of NQO1 activity. Fifty microliters of MTT cocktail is added to each well, plate is centrifuged, and analyzed on an Envision plate reader (Perkin Elmer) using Absorbance 570 nm label for 30 minutes. Product formation is measured kinetically and the pEC50 of NQO1 specific activity induction is calculated by plotting the change in absorbance (Delta OD/min) versus the log of compound concentration followed by 3-parameter fitting. pEC50 is the negative log of the EC50.

Test [2] addresses T1, full length Keap1 protein / full length NRF2 protein (Homo sapiens, UniProt Q14145).
T1 construct: full length NRF2 protein and full length Keap1 protein (Keap1 exists a dimer) are used; His
Put plainly: NRF2-Keap1 TR-FRET Low Protein Assay. Type of test: binding. The following applies: 1.25 nM Keap1 FlagHis and 2.5 nM biotin-NRF2 added. From the text:
NRF2-Keap1 TR-FRET Low Protein Assay In the NRF2-Keap1 TR-FRET (time-resolved fluorescence resonance energy transfer) low protein assay, full length NRF2 protein and full length Keap1 protein (Keap1 exists a dimer) are used. The assay detects a compound's ability to displace the binding of Keap1 […] with biotinylated Avi-NRF2 protein. Biotin-NRF2 binds to streptavidin-europium (a component of the detection mix) and Keap1 […] is recognized by anti-Flag APC (allophycocyanin) antibody (also a component of the detection mix). If binding occurs between the two proteins, there will be an energy transfer from the Eu+3 (donor) at 615 nm to the APC (acceptor) at 665 nm. A potential NRF2 inhibitor will cause a reduction in the TR-FRET signal by interfering with the binding of Keap1 to NRF2. Ten nanoliters of 100× compound dose response curves (serial 3-fold dilutions) in DMSO are stamped using an Echo liquid handling system (Labcyte) into 384-well, low volume, black assay plates (Greiner, #784076), with DMSO in columns 6 and 18. An additional 90 nl DMSO is added to each well, to bring the total volume to 100 nl per well. The top concentration of compound is located in columns 1 and 13, with the serial dilutions going across the row. All reagents are diluted in assay buffer (50 mM Tris, pH 8.0, 5 mM MgCl2, 100 mM NaCl, 0.005% BSA, 1 mM DTT, and 2 mM CHAPS. The BSA, DTT, and CHAPS are added to the assay buffer on the day of assay. […] Wells in column 18 receive 5 ul of assay buffer instead. Plates are centrifuged at 500 rpm for 1 minute, covered with a plate lid, and incubated at 37° C. for 2.25 hours. Plates are then removed from the incubator and allowed to cool to RT for 15 minutes. Five microliters of 2.5 nM biotin-NRF2 protein is then added to all wells of the plates and the plates are spun at 500 rpm for 1 minute, followed by incubating at 4° C. for 1.25 hours. The plates are then allowed to warm to RT for 15 minutes, followed by the addition of 10 ul of detection mix (1 nM Streptavidin Eu+W1024 and 5 ug/ml mouse anti-DYKDDDDK IgG conjugated to SureLight APC antibody; both from Columbia Biosciences) to all wells. Plates are spun at 500 rpm for 1 minute, incubated for 1 hour at RT, and read on an Envision plate reader using a 320 nm excitation filter and 615 nm and 665 nm emission filters. […] Data analysis is handled using the software package Abase XE (Surrey, United Kingdom). […] For calculation of pIC50s, Abase XE uses a four parameter equation. pIC50 is the negative log of the IC50.
(TR-FRET usually uses a lanthanide donor and a delayed reading to cut background.)

Test [3] addresses T2, Keap1 Kelch domain (321-609) / TAMRA-labeled 16mer NRF2 peptide (ETGE motif) (Homo sapiens, UniProt Q14145).
T2 construct: the Kelch domain (321-609) of Keap1 is used
Description: NRF2-Keap1 FP Assay (Keap1 Kelch fluorescence polarization). In kind it is binding. The note with it: 20 nM Keap1 (321-609), 8 nM Tamra labeled peptide. From the text:
One model for the NRF2-Keap1 interaction is through two binding sites in the Neh2 domain on NRF2. The two sites are referred to as the DLG binding motif (latch domain, uM affinity) and the ETGE binding motif (hinge domain, nM affinity). The Keap1 protein consists of an N-terminal region (NTR), a broad complex, tramtrack, and brick a′ brac domain (BTB), an intervening region (IVR), a double glycine repeat domain (DGR or Kelch), and a C-terminal region. The DLG and ETGE motifs of NRF2's Neh2 domain bind to the Kelch domain of Keap1 at different affinities. In the Keap1 Kelch fluorescence polarization (FP) assay, a TAMRA-labeled 16mer peptide (AFFAQLQLDEETGEFL) containing the ETGE motif of NRF2 and the Kelch domain (321-609) of Keap1 is used. The assay determines if a compound interferes with the binding between Keap1 […] and the TAMRA-labeled peptide. Binding of TAMRA-labeled NRF2 peptide to Keap1 (321-609) results in a high FP signal. If a compound interferes with the binding between the peptide and the protein, it will cause the assay signal to decrease. Thus, assay signal is inversely proportional to binding inhibition.
100 nl of 100× compound dose response curves (serial 3-fold dilutions) in DMSO are stamped using an Echo liquid handling system (Labcyte) into 384-well low volume black assay plates (Greiner, #784076), with DMSO in columns 6 and 18. The top concentration of compound is located in columns 1 and 13. Keap1 (321-609) is diluted to 40 nM (2×) in 1× assay buffer (50 mM Tris, pH 8.0, 100 mM NaCl, 5 mM MgCl2, 1 mM DTT, 2 mM CHAPS, and 0.005% BSA) and 5 ul is added using a Multidrop Combi (Thermo Electron Corporation) equipped with a metal tip dispenser to all wells of the compound plate, except column 18. Column 18 receives only 5 ul of assay buffer. Immediately, 5 uL of 16 nM (2×) of Tamra labeled peptide (AFFAQLQLDEETGEFL, 21st Century Biochemicals) is added to all wells of the plate. The plates are spun at 500 rpm for 1 min, incubated for 1 hr at room temperature, and read on an Analyst GT (Molecular Devices) equipped with excitation (530/25 nm) and emission (580/10 nm) filters designed for Tamra probes. A 561 nm dichroic mirror is also used in the Analyst. The final assay concentrations of Keap1 (321-609) and Tamra labeled peptide are 20 nM and 8 nM, respectively. Fluorescence measurements, represented as mP, are used in the transformation of the data. Compound activity is calculated based on percent inhibition, normalized against controls in the assay (Control 1 contains the Tamra peptide and Keap1 (321-609) together (0% response) and control 2 contains the Tamra peptide alone (100% response)). Data analysis is handled using the software package Abase XE (Surrey, United Kingdom. The % inhibition values are calculated by the equation: 100−(100*((compound response−average control 2)/(average control 1−average control2))). For calculation of pIC50s, Abase XE uses a four parameter equation. pIC50 is the negative log of the IC50.
(Fluorescence polarisation rises when a labelled molecule tumbles more slowly, as on binding a larger partner.)

In patent US10364256B2 (GlaxoSmithKline Intellectual Property Development Limited, priority 2015, dated 2019) one finds EC50 and IC50 data, which are given here for 8 compounds.

Molecules are shown by their SMILES.

Broadly, the EC50 is the midpoint of the concentration-response curve. One may read the IC50 as the point on the concentration scale where inhibition reaches its midpoint. The low end stands for greater potency, the high end for weaker potency.

T1 sequence (Q14145 whole entry): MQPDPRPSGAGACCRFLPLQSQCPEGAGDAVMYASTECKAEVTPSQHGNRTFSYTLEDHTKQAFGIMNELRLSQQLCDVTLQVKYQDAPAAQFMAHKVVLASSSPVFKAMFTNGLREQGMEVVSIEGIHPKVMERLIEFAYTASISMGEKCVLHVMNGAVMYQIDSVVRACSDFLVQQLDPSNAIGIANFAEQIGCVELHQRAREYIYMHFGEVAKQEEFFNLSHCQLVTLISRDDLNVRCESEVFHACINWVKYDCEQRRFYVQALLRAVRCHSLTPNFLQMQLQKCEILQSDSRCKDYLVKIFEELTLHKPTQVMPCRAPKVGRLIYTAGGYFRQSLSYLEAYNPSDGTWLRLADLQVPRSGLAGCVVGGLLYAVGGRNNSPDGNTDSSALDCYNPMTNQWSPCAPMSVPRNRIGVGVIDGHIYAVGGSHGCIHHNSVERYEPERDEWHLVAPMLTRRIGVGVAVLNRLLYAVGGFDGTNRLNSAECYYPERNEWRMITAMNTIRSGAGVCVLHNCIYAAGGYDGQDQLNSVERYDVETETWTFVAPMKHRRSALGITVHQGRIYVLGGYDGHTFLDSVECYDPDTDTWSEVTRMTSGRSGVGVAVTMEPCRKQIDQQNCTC
T2 sequence (Q14145 321-609): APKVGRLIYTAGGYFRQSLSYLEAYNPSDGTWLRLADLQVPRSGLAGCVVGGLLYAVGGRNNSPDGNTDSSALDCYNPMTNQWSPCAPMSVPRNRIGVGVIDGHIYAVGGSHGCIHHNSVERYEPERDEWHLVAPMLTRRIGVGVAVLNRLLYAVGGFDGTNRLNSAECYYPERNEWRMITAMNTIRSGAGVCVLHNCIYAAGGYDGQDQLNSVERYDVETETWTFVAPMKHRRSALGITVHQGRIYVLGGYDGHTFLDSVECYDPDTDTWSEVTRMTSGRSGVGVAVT

On to `Cc1c(O[C@@H](C)C2CCCCC2)cccc1-c1cccc(-n2ncc(C(=O)O)c2[C@H]2C[C@@H]2c2cn(C)nn2)c1` (racemic) [Example 71, 1-(3′-((S)-1-Cyclohexylethoxy)-2′-methyl-[1,1′-biphenyl]-3-yl)-5-(trans-2-(1-methyl-1H-1,2,3-triazol-4-yl)cyclopropyl)-1H-pyrazole-4-carboxylic Acid], for which the EC50 in test [1] lay in the range of 1 to 10 µM. In addition, the IC50 in test [2] and in test [3] was 1 to 10 µM each time.
In the case of `Cc1c(OCC2CCCCC2)cccc1-c1cccc(-n2ncc(C(=O)O)c2[C@H]2C[C@@H]2c2cn(C)nn2)c1` (racemic) [Example 72, 1-(3′-(Cyclohexylmethoxy)-2′-methyl-[1,1′-biphenyl]-3-yl)-5-(trans-2-(1-methyl-1H-1,2,3-triazol-4-yl)cyclopropyl)-1H-pyrazole-4-carboxylic Acid], the EC50 in test [1] fell in the range of 0.01 to 0.1 µM. For the same compound, the concentration for half-maximal inhibition (IC50) in test [2] and in test [3] was 0.1 to 1 µM throughout.
Consider `CCn1cc([C@@H]2C[C@H]2c2c(C(=O)O)cnn2-c2cccc(-c3cccc(O[C@@H](C)C4CCCCC4)c3)c2)nn1` (racemic) [Example 76, 1-(3′-((S)-1-Cyclohexylethoxy)-[1,1′-biphenyl]-3-yl)-5-(trans-2-(1-ethyl-1H-1,2,3-triazol-4-yl)cyclopropyl)-1H-pyrazole-4-carboxylic acid], for which the EC50 in test [1] was 0.001 to 0.01 µM. Also, the concentration for half-maximal inhibition (IC50) in test [2] and in test [3] was 0.01 to 0.1 µM each time.
In the case of `C[C@H](Oc1cccc(-c2cccc(-n3ncc(C(=O)O)c3[C@@H]3C[C@H]3c3cn(C4COC4)nn3)c2)c1)C1CCCCC1` (racemic) [Example 77, 1-(3′-((S)-1-Cyclohexylethoxy)-[1,1′-biphenyl]-3-yl)-5-(trans-2-(1-(oxetan-3-yl)-1H-1,2,3-triazol-4-yl)cyclopropyl)-1H-pyrazole-4-carboxylic acid], the EC50 in test [1] was in the range of 0.01 to 0.1 µM. The IC50 in test [2] and in test [3] was 0.01 to 0.1 µM in each case.
For the compound `C[C@H](Oc1cccc(-c2cccc(-n3ncc(C(=O)O)c3[C@@H]3C[C@H]3c3cn(C4CCC4)nn3)c2)c1)C1CCCCC1` (racemic) [Example 78, 5-(trans-2-(1-Cyclobutyl-1H-1,2,3-triazol-4-yl)cyclopropyl)-1-(3′-((S)-1-cyclohexylethoxy)-[1,1′-biphenyl]-3-yl)-1H-pyrazole-4-carboxylic acid], the concentration giving a half-maximal response (EC50) in test [1] was in the range of 0.001 to 0.01 µM. For the same compound, the half-inhibitory concentration (IC50) in test [2] and in test [3] was 0.01 to 0.1 µM in each case.
With `C[C@H](Oc1cccc(-c2cccc(-n3ncc(C(=O)O)c3[C@@H]3C[C@H]3c3cn(C4CN(C(=O)OC(C)(C)C)C4)nn3)c2)c1)C1CCCCC1` (racemic) [Example 80, 5-(trans-2-(1-(1-(tert-Butoxycarbonyl)azetidin-3-yl)-1H-1,2,3-triazol-4-yl)cyclopropyl)-1-(3′-((S)-1-cyclohexylethoxy)-[1,1′-biphenyl]-3-yl)-1H-pyrazole-4-carboxylic acid], the EC50 in test [1] lay within 0.01 to 0.1 µM. For the same compound, the 50% inhibitory concentration (IC50) in test [2] is 0.01 to 0.1 µM; in test [3] it was 0.1 to 1 µM.
As for `C[C@H](Oc1cccc(-c2cccc(-n3ncc(C(=O)O)c3[C@@H]3C[C@H]3c3cn(C4CCN(C(=O)OC(C)(C)C)CC4)nn3)c2)c1)C1CCCCC1` (racemic) [Example 81, 5-(trans-2-(1-(1-(tert-Butoxycarbonyl)piperidin-4-yl)-1H-1,2,3-triazol-4-yl)cyclopropyl)-1-(3′-((S)-1-cyclohexylethoxy)-[1,1′-biphenyl]-3-yl)-1H-pyrazole-4-carboxylic acid], the concentration giving a half-maximal response (EC50) in test [1] was in the range of 0.01 to 0.1 µM. Besides, the IC50 in test [2] and in test [3] was 0.1 to 1 µM in each case.
In the case of `C[C@H](Oc1cccc(-c2cccc(-n3ncc(C(=O)O)c3[C@@H]3C[C@H]3c3cn(C4CCN(C)CC4)nn3)c2)c1)C1CCCCC1` (racemic) [Example 82, 1-(3′-((S)-1-Cyclohexylethoxy)-[1,1′-biphenyl]-3-yl)-5-(trans-2-(1-(1-methylpiperidin-4-yl)-1H-1,2,3-triazol-4-yl)cyclopropyl)-1H-pyrazole-4-carboxylic acid], the EC50 in test [1] lay within 0.01 to 0.1 µM. For the same compound, the 50% inhibitory concentration (IC50) in test [2] and in test [3] was 0.01 to 0.1 µM throughout.
